The subject of assay [1] is Porphyromonas gingivalis ATCC 33277 strain and Streptococcus oralis ATCC 9811 strain. To be noted: pRH solution 2.5 mg/mL; PBS pH 6.0, 37° C.; FIG. 13.
In assay [2] the test system is arginine-specific protease (Arg-gingipain; RGP). Nature of the assay: Protease inhibition, fluorogenic substrate Bz-Arg-methylcoumarinamide, culture supernatant. It counts as biochemical, Porphyromonas gingivalis. To be noted: substrate 100 μM, 15 minutes room temperature. As for the experimental part: Enzyme activity inhibitions of an arginine-specific protease (Arg-gingipain; hereinafter, referred to as “RGP”) and lysin-specific protease (Lys-gingipain; hereinafter, referred to as “KGP”) as dominant virulence factor for Porphyromonas gingivalis were examined.
The reaction was stopped by adding 2 mM TLCK, and released methyl-coumarin-amide was measured by means of spectrophotofluorometer (excitation wavelength: 380 nm, fluorescence wavelength: 460 nm).
Furthermore, an inhibition rate was defined according to the Equation (1):
Inhibition rate(%)=(Blank fluorescence intensity−Sample fluorescence intensity)÷Blank fluorescence intensity×100 (1)
Blank fluorescence intensity indicates fluorescence intensity upon reaction without adding pRH. Sample fluorescence intensity indicates fluorescence intensity upon reaction with adding pRH.

Assay [3] concerns Actinobacillus actinomycetemcomitans ATCC 29523 stain, Y4 strain. The experiment in a line: Growth of periodontopathic bacteria in pRH-containing medium (turbidity O.D.660 nm). It counts as cell-based. To be noted: 500 μg/mL; ATCC 29523 and Y4 strains; FIGS. 5, 6. Here is the method: (§1) Each of the above cryopreserved strains was anaerobically cultivated at 35° C. for 48 hours by using TSB medium to which yeast extract (1 g/L), hemin ([…]), and menadione (1 mg/L) were added to provide a precultured bacterial culture.

Assay [4] concerns Treponema denticola ATCC 33520 strain. The assay is described as above. It counts as cell-based. To be noted: 500 μg/mL, FIG. 9. Here is the method:
as §1

The test system of assay [5] is Fusobacterium nucleatum ATCC 23726 strain, ATCC 25586 strain. The assay is described as above. To be noted: 500 μg/mL; ATCC 23726 and ATCC 25586 strains; FIGS. 7, 8. It is filed as cell-based. Here is the method:
as §1

Assay [6] concerns Porphyromonas gingivalis ATCC 33277 strain, W50 strain. The description is as above. To be noted: 500 μg/mL; ATCC 33277 and W50 strains; FIGS. 1, 2. It is filed as cell-based. As for the experimental part: as §1
For assay [7], the system named is Prevotella intermedia ATCC 49046 strain. Described as above. It is filed as cell-based. To be noted: 500 μg/mL, FIG. 3. Here is the method:
as §1

Assay [8] relates to Prevotella nigrescens ATCC 25261 strain. To be noted: O.D.660 nm after 24 hours and 48 hours, FIG. 4.
The test system of assay [9] is Porphyromonas gingivalis ATCC 33277 strain. It counts as cell-based. To be noted: 0.1 mg/mL, 1 mg/mL, 10 mg/mL.

Regarding polyarginyl histidine [pRH], the “aggregation inhibitory activity (inhibition rate of coaggregation)” value in assay [1] is recorded as 33%. For the same substance, the “inhibition rate for RGP” value amounted to 0.2% in [2] (pRH at 100 μg/mL) and 7.7% in assay [2] (pRH at 1000 μg/mL). For the same substance, the growth inhibitory effect result in [3], in [4], in [5], in [6] and in assay [7] was “not observed” throughout. Also, the “concentration at which a growth inhibitory effect was observed” value in [8] is at least 100 µg/mL. Further, in [9], the “inhibition of the absorption (adhesion) of Porphyromonas gingivalis for sHA” value is “obviously inhibited”.
polylysine [reference compound]: the “inhibition of the absorption (adhesion) of Porphyromonas gingivalis for sHA” value in assay [9] is “did not inhibit”.

These data come from patent publication US20080170998A1 (priority 2005, published 2008).
